According to patent US5840684A, “Glycopeptide antibiotic derivatives” (Eli Lilly and Company, priority 1995, dated 1998):
≈ marks a conversion by molar mass, not a printed value.

Assays:
[1] = test system: Staphylococcus aureus 489; experiment: broth micro-dilution MIC; format: cell-based
Method: (§1) The MIC's were determined using a standard broth micro-dilution assay.

[2] = test system: Staphylococcus aureus 491; experiment: broth micro-dilution MIC; format: cell-based
Method: as §1

[3] = test system: Staphylococcus aureus 446; experiment: broth micro-dilution MIC; format: cell-based
Method: as §1

[4] = test system: Staphylococcus aureus SA1199A; experiment: broth micro-dilution MIC; format: cell-based
Method: as §1

[5] = test system: Staphylococcus aureus 447; experiment: broth micro-dilution MIC; format: cell-based
Method: as §1

Entercoccus faecium 276 = experiment: broth micro-dilution MIC; format: cell-based
Method: as §1

[6] = test system: Entercoccus faecium 180-1; experiment: broth micro-dilution MIC; format: cell-based
Method: as §1

[7] = test system: Staphylococcus aureus X778; experiment: broth micro-dilution MIC; format: cell-based
Method: as §1

[8] = test system: Staphylococcus aureus X400; experiment: broth micro-dilution MIC; format: cell-based
Method: as §1

[9] = test system: Staphylococcus aureus S13E; format: cell-based
Method: as §1

Entercoccus faecium 180 = experiment: broth micro-dilution MIC; format: cell-based; conditions: Entercoccus faecium 180
Method: (§2) The formula I compounds have in vitro and in vivo activity against Gram-positive pathogenic bacteria. The MIC's were determined using a standard broth micro-dilution assay.

[10] = test system: Staphylococcus haemolyticus 105; experiment: broth micro-dilution MIC; format: cell-based
Method: as §2

[11] = test system: Enterococcus gallinarum 245; experiment: broth micro-dilution MIC; format: cell-based; conditions: Enterococcus gallinarum 245
Method: as §2

[12] = test system: Staphylococcus epidermidis 270; experiment: broth micro-dilution MIC; format: cell-based
Method: as §2

Entercoccus faecium 2041 = experiment: broth micro-dilution MIC; format: cell-based; conditions: Entercoccus faecium 2041
Method: as §2

[13] = test system: Staphylococcus haemolyticus 415; experiment: broth micro-dilution MIC; format: cell-based
Method: as §2

[14] = test system: vancomycin-susceptible enterococci; experiment: broth micro-dilution, mean geometric MIC; format: cell-based, Enterococcus faecium and Enterococcus faecalis; conditions: enterococci, 24-hour incubation
[15] = test system: vancomycin-resistant enterococci; experiment: broth micro-dilution, mean geometric MIC; format: cell-based, Enterococcus faecium and Enterococcus faecalis; conditions: enterococci, 24-hour incubation
[16] = test system: Streptococcus pyogenes C203; experiment: broth micro-dilution MIC; format: cell-based
Method: as §1

[17] = test system: Staphylococcus aureus SA1199B; format: cell-based
Method: as §1

[18] = test system: Streptococcus pneumoniae P1; experiment: broth micro-dilution MIC; format: cell-based
Method: as §2

| SMILES | MIC [1] [µg/mL] | MIC [2] [µg/mL] | MIC [3] [µg/mL] | MIC [4] [µg/mL] | MIC [5] [µg/mL] | MIC (Entercoccus faecium 276) [µg/mL] | MIC [6] [µg/mL] | MIC [7] [µg/mL] | MIC [8] [µg/mL] | MIC [9] [µg/mL] | MIC (Entercoccus faecium 180) [µg/mL] | MIC [10] [µg/mL] | MIC [11] [µg/mL] | MIC [12] [µg/mL] | MIC (Entercoccus faecium 2041) [µg/mL] | MIC [13] [µg/mL] | mean geometric MIC, Vancomycin Sensitive Strains [14] [µg/mL] | mean geometric MIC, Vancomycin Resistant Strains [15] [µg/mL] | MIC [16] [µg/mL] | MIC [18] [µg/mL] | also measured |
| --- | --- | --- | --- | --- | --- | --- | --- | --- | --- | --- | --- | --- | --- | --- | --- | --- | --- | --- | --- | --- | --- |
| CNC(CC(C)C)C(=O)NC1C(=O)NC(CC(N)=O)C(=O)NC2C(=O)NC3C(=O)NC(C(=O)NC(C(=O)O)c4cc(O)cc(O)c4-c4cc3ccc4O)C(OC3CC(C)(N)C(O)C(C)O3)c3ccc(c(Cl)c3)Oc3cc2cc(c3OC2OC(CO)C(O)C(O)C2OC2CC(C)(NCc3cnc4ccccc4c3)C(O)C(C)O2)Oc2ccc(cc2Cl)C1O (stereo not shown) [Compound 28] | ≤ 0.06 | 0.25 (≈ 0.144 µM) | 0.25 (≈ 0.144 µM) | ≤ 0.06 | 1 (≈ 0.577 µM) | ≤ 0.06 | ≤ 0.06 | ≤ 0.06 | ≤ 0.06 | ≤ 0.06 | 1 (≈ 0.577 µM) | 4 (≈ 2.31 µM) | 0.25 (≈ 0.144 µM) | 1 (≈ 0.577 µM) | 0.25 (≈ 0.144 µM) | 8 (≈ 4.61 µM) | 0.71 | 4.7 | – | – | – |
| CNC(CC(C)C)C(=O)NC1C(=O)NC(CC(N)=O)C(=O)NC2C(=O)NC3C(=O)NC(C(=O)NC(C(=O)O)c4cc(O)cc(O)c4-c4cc3ccc4O)C(OC3CC(C)(N)C(O)C(C)O3)c3ccc(c(Cl)c3)Oc3cc2cc(c3OC2OC(CO)C(O)C(O)C2OC2CC(C)(NCc3cncc(-c4ccccc4)c3)C(O)C(C)O2)Oc2ccc(cc2Cl)C1O (stereo not shown) [Compound 101] | ≤ 0.06 | 0.5 (≈ 0.284 µM) | 0.5 (≈ 0.284 µM) | 0.5 (≈ 0.284 µM) | 1 (≈ 0.568 µM) | 0.125 (≈ 0.071 µM) | ≤ 0.06 | – | ≤ 0.06 | – | – | 1 (≈ 0.568 µM) | 8 (≈ 4.55 µM) | 0.5 (≈ 0.284 µM) | ≤ 0.06 | 8 (≈ 4.55 µM) | – | 4.0 | ≤ 0.06 | ≤ 0.06 | MIC [17]: 1 µg/mL (≈ 0.568 µM) |
| CNC(CC(C)C)C(=O)NC1C(=O)NC(CC(N)=O)C(=O)NC2C(=O)NC3C(=O)NC(C(=O)NC(C(=O)O)c4cc(O)cc(O)c4-c4cc3ccc4O)C(OC3CC(C)(N)C(O)C(C)O3)c3ccc(c(Cl)c3)Oc3cc2cc(c3OC2OC(CO)C(O)C(O)C2OC2CC(C)(NCc3cccc(OC(=O)C4CCCCC4)c3)C(O)C(C)O2)Oc2ccc(cc2Cl)C1O (stereo not shown) [Compound 165] | 2 (≈ 1.11 µM) | 0.5 (≈ 0.276 µM) | 1 (≈ 0.553 µM) | ≤ 0.06 | 0.5 (≈ 0.276 µM) | 0.5 (≈ 0.276 µM) | ≤ 0.06 | – | 0.5 (≈ 0.276 µM) | ≤ 0.06 | 0.5 (≈ 0.276 µM) | 4 (≈ 2.21 µM) | 4 (≈ 2.21 µM) | 1 (≈ 0.553 µM) | ≤ 0.06 | 4 (≈ 2.21 µM) | 0.062 | 4.0 | ≤ 0.06 | ≤ 0.06 | MIC [17]: 1 µg/mL (≈ 0.553 µM) |
| CNC(CC(C)C)C(=O)NC1C(=O)NC(CC(N)=O)C(=O)NC2C(=O)NC3C(=O)NC(C(=O)NC(C(=O)O)c4cc(O)cc(O)c4-c4cc3ccc4O)C(OC3CC(C)(N)C(O)C(C)O3)c3ccc(c(Cl)c3)Oc3cc2cc(c3OC2OC(CO)C(O)C(O)C2OC2CC(C)(NCc3ccc(OCC(O)CO)cc3)C(O)C(C)O2)Oc2ccc(cc2Cl)C1O (stereo not shown) [Compound 177] | ≤ 0.06 | 0.5 (≈ 0.282 µM) | 0.5 (≈ 0.282 µM) | 0.5 (≈ 0.282 µM) | 4 (≈ 2.26 µM) | – | ≤ 0.06 | 2 (≈ 1.13 µM) | ≤ 0.06 | – | 4 (≈ 2.26 µM) | 4 (≈ 2.26 µM) | 16 (≈ 9.03 µM) | 1 (≈ 0.564 µM) | – | 16 (≈ 9.03 µM) | – | – | 16 (≈ 9.03 µM) | 8 (≈ 4.51 µM) | – |
| CNC(CC(C)C)C(=O)NC1C(=O)NC(CC(N)=O)C(=O)NC2C(=O)NC3C(=O)NC(C(=O)NC(C(=O)O)c4cc(O)cc(O)c4-c4cc3ccc4O)C(O)c3ccc(c(Cl)c3)Oc3cc2cc(c3OC2OC(CO)C(O)C(O)C2OC2CC(C)(NCc3cccc4ccccc34)C(O)C(C)O2)Oc2ccc(cc2Cl)C1O (stereo not shown) [Compound 180] | ≤ 0.06 | 0.5 (≈ 0.315 µM) | – | ≤ 0.06 | – | 2 (≈ 1.26 µM) | – | ≤ 0.06 | ≤ 0.06 | ≤ 0.06 | 8 (≈ 5.03 µM) | 2 (≈ 1.26 µM) | 0.25 (≈ 0.157 µM) | – | 0.25 (≈ 0.157 µM) | 2 (≈ 1.26 µM) | 0.71 | > 128 | ≤ 0.06 | ≤ 0.06 | MIC [17]: ≤ 0.06 µg/mL |
| CNC(CC(C)C)C(=O)NC1C(=O)NC(CC(N)=O)C(=O)NC2C(=O)NC3C(=O)NC(C(=O)NC(C(=O)O)c4cc(O)cc(O)c4-c4cc3ccc4O)C(OC3CC(C)(N)C(O)C(C)O3)c3ccc(c(Cl)c3)Oc3cc2cc(c3OC2OC(CO)C(O)C(O)C2OC2CC(C)(NCC3CCC4CCCC43)C(O)C(C)O2)Oc2ccc(cc2Cl)C1O (stereo not shown) [Compound 190] | 0.125 (≈ 0.0729 µM) | 0.125 (≈ 0.0729 µM) | – | ≤ 0.06 | 1 (≈ 0.583 µM) | 0.125 (≈ 0.0729 µM) | ≤ 0.06 | 0.125 (≈ 0.0729 µM) | ≤ 0.06 | 0.125 (≈ 0.0729 µM) | 8 (≈ 4.67 µM) | 8 (≈ 4.67 µM) | 8 (≈ 4.67 µM) | 2 (≈ 1.17 µM) | ≤ 0.06 | 8 (≈ 4.67 µM) | 0.29 | 6.7 | ≤ 0.06 | ≤ 0.06 | MIC [17]: 0.5 µg/mL (≈ 0.292 µM) |
| CCCCCCCC#Cc1ccc(CN[C@@]2(C)C[C@H](O[C@H]3[C@H](Oc4c5cc6cc4Oc4ccc(cc4Cl)[C@@H](O[C@H]4C[C@](C)(N)[C@@H](O)[C@H](C)O4)[C@@H]4NC(=O)[C@H](NC(=O)[C@@H]6NC(=O)[C@H](CC(N)=O)NC(=O)[C@H](NC(=O)[C@@H](CC(C)C)NC)[C@H](O)c6ccc(c(Cl)c6)O5)c5ccc(O)c(c5)-c5c(O)cc(O)cc5[C@@H](C(=O)O)NC4=O)O[C@H](CO)[C@@H](O)[C@@H]3O)O[C@@H](C)[C@@H]2O)cc1 [Compound 232] | 8 (≈ 4.43 µM) | 4 (≈ 2.22 µM) | 4 (≈ 2.22 µM) | 2 (≈ 1.11 µM) | – | 8 (≈ 4.43 µM) | 1 (≈ 0.554 µM) | 8 (≈ 4.43 µM) | 8 (≈ 4.43 µM) | 8 (≈ 4.43 µM) | 0.5 (≈ 0.277 µM) | 2 (≈ 1.11 µM) | 32 (≈ 17.7 µM) | 8 (≈ 4.43 µM) | 2 (≈ 1.11 µM) | 32 (≈ 17.7 µM) | 0.29 | 0.71 | ≤ 0.06 | ≤ 0.06 | MIC [17]: 32 µg/mL (≈ 17.7 µM) |
| CC#CCCCCCCCCCCOc1ccc(CNC2(C)CC(OC3C(Oc4c5cc6cc4Oc4ccc(cc4Cl)C(OC4CC(C)(N)C(O)C(C)O4)C4NC(=O)C(NC(=O)C6NC(=O)C(CC(N)=O)NC(=O)C(NC(=O)C(CC(C)C)NC)C(O)c6ccc(c(Cl)c6)O5)c5ccc(O)c(c5)-c5c(O)cc(O)cc5C(C(=O)O)NC4=O)OC(CO)C(O)C3O)OC(C)C2O)cc1 (stereo not shown) [Compound 233] | 4 (≈ 2.13 µM) | 8 (≈ 4.26 µM) | 4 (≈ 2.13 µM) | 4 (≈ 2.13 µM) | – | 8 (≈ 4.26 µM) | 2 (≈ 1.07 µM) | 8 (≈ 4.26 µM) | 8 (≈ 4.26 µM) | 8 (≈ 4.26 µM) | 2 (≈ 1.07 µM) | – | – | 8 (≈ 4.26 µM) | 2 (≈ 1.07 µM) | – | 1.7 | 1.7 | – | 0.5 (≈ 0.266 µM) | – |
